# Laboratory results as given in ChEMBL document CHEMBL1201862, “PubChem BioAssay data set” (2004).
# The source made the active and inactive calls.
# Columns and labels:
# [1] = molecular target: T1, Histone-lysine N-methyltransferase NSD2 (Homo sapiens, UniProt O96028); type: biochemical
# T1 sequence (O96028 whole entry): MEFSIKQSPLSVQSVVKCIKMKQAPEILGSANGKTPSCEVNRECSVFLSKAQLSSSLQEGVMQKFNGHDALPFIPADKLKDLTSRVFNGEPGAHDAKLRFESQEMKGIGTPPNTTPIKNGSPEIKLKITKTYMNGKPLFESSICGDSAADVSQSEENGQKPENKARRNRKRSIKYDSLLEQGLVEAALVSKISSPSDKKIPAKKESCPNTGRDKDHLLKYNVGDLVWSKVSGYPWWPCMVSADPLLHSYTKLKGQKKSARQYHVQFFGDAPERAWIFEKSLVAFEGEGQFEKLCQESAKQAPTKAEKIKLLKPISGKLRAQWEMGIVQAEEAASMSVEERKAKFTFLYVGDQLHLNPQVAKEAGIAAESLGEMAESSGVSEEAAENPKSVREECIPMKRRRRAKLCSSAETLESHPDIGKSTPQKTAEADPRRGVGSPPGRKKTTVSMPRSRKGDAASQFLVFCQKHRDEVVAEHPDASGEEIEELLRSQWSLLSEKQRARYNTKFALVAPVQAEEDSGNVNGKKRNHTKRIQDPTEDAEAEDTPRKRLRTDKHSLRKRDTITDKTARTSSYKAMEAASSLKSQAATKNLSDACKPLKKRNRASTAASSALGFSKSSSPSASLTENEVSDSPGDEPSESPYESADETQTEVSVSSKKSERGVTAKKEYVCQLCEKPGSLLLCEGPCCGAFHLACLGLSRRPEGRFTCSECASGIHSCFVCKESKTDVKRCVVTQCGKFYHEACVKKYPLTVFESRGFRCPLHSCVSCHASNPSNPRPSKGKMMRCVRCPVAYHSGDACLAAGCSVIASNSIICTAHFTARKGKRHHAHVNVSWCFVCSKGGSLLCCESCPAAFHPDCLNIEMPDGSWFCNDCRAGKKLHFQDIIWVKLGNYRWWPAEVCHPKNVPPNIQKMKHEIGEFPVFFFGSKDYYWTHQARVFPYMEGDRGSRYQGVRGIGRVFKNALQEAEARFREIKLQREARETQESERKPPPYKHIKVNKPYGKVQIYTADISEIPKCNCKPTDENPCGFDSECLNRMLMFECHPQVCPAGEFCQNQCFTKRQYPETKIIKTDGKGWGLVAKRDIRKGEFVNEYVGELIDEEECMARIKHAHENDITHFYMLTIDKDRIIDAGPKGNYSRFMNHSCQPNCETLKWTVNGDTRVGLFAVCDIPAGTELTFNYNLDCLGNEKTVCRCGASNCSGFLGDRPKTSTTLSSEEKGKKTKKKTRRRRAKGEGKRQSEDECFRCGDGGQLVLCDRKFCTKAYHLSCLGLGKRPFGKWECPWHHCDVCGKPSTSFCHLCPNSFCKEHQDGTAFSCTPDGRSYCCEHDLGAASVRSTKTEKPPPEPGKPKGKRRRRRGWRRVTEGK
# [2] = molecular target: T2, Endoribonuclease toxin MazF (Escherichia coli K-12, UniProt P0AE70); assay: MazF toxin RNase activators, dose response, biochemical, fluorescence, single-stranded RNA substrate, uHTS hits (AID 588481); type: functional
# T2 sequence (P0AE70 whole entry): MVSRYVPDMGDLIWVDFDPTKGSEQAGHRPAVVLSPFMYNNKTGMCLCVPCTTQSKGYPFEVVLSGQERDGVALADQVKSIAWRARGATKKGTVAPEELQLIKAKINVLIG
# [3] = molecular target: T2, Endoribonuclease toxin MazF; assay: fluorescent RNA oligo signal without MazF, dose response, counter-screen for MazEF activator project, biochemical, fluorescence, single-stranded RNase substrate (AID 588502); type: functional
# [4] = molecular target: T3, Mannose-6-phosphate isomerase (Homo sapiens, UniProt P34949); assay: human PMI inhibitors, high substrate, primary screen, biochemical, fluorescence intensity, high mannose 6-phosphate (AID 1220)
# T3 sequence (P34949 whole entry): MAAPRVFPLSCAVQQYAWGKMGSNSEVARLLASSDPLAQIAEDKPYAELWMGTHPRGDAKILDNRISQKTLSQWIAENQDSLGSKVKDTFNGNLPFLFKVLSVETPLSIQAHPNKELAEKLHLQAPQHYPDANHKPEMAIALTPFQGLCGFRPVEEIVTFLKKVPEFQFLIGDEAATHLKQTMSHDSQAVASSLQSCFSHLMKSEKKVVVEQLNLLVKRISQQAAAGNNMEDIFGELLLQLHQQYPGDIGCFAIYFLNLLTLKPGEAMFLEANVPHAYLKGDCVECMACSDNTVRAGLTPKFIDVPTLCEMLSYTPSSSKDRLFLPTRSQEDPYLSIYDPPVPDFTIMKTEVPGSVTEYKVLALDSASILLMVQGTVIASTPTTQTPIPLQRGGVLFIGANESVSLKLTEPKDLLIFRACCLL
# [5] = molecular target: E3 ubiquitin-protein ligase Mdm2 (Homo sapiens, UniProt Q00987); assay: enhancers of MDM2-luciferase reporter signal, concentration-effect titration, project on inhibitors of MDM2 ubiquitin ligase, cellular assay, luminescent readout, 384-well plate format (AID 1394); type: functional;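 also: MDM2 E3 inhibitors raise luminescence so EC50 is for signal enhancement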
# [6] = molecular target: T4, COUP transcription factor 2 (Homo sapiens, UniProt P24468); assay: Luminescence-based cell-based high throughput dose response assay to identify inhibitors of COUP-TFII (NR2F2).; type: functional;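 also: HEK293 cells transiently cotransfected with COUP-TFII expression vector and reporter; luciferase reporter luminescence driven by COUP-TFII from the pX2-168 reporter plasmid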
# T4 sequence (P24468 whole entry): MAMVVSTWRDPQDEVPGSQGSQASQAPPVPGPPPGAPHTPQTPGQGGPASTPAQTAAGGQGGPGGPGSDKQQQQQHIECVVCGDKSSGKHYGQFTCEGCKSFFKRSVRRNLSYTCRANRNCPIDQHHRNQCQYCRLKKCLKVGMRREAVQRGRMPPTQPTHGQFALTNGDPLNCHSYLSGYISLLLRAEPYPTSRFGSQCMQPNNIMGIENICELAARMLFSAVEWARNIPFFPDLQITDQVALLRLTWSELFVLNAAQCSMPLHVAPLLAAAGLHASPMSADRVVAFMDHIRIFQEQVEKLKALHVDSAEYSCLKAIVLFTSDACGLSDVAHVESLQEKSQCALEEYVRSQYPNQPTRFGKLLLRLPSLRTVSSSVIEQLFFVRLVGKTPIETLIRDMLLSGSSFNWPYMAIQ
# Cytochrome P450 2C9 = Cytochrome P450 2C9 (Homo sapiens, UniProt P11712)
# [7] = molecular target: Mitogen-activated protein kinase 10 (Homo sapiens, UniProt P53779); assay: Dose response biochemical screening assay for inhibitors of c-Jun N-Terminal Kinase 3 (JNK3). [Related pubchem assays: 746 ]
# [8] = P. falciparum Dd2 growth inhibitors, dose response, SYBR Green, dry powder samples, set 9 (AID 1159568); type: functional, cell-based
# [9] = P. falciparum Dd2 growth inhibitors, dose response, SYBR Green, cherry-picked samples (AID 1159567); type: functional, cell-based
# [10] = HepG2 cell cytotoxicity, dose response, cytotoxicity control, cherry-picked samples (AID 1159577); type: functional, cell-based
# H4 = assay: Luminescence Cell-Based Dose Response HTS to Identify Activators of 5'UTR Stem-Loop Driven Prion Protein mRNA Translation in H4 Neuroglioblastoma Cells. [Related pubchem assays: 1829 (Project Summary), 1814 (Primary HTS)]; type: functional; details: Homo sapiens
# [11] = Luminescence Cell-Based Dose Response HTS to Identify Activators of Luciferase Translation or Activity in H4 […] Cells. [Related pubchem assays: 1829 (Project Summary), 1814 (Primary HTS)]; type: functional
# [12] = Luminescence Cell-Based Dose Confirmation HTS to Identify Activators of 5'UTR Stem-Loop Driven Alpha-Synuclein mRNA Translation in H4 Neuroglioblastoma Cells. [Related pubchem assays: 1829 (Project Summary), 1814 (Primary HTS)]; type: functional
# [13] = molecular target: FAD-linked sulfhydryl oxidase ALR (Homo sapiens, UniProt P55789); assay: inhibitors of human ALR sulfhydryl oxidase, dose response, biochemical, H2O2 detection, luminescence, cherry-pick (AID 493248)
# Chain of FAD-linked sulfhydryl oxidase ALR (P55789 whole entry): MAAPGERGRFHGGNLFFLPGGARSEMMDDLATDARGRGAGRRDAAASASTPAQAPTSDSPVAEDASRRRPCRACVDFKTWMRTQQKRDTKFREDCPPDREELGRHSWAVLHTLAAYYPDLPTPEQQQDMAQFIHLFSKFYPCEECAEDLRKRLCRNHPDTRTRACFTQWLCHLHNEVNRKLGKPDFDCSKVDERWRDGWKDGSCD
# Chain of E3 ubiquitin-protein ligase Mdm2 (Q00987 whole entry): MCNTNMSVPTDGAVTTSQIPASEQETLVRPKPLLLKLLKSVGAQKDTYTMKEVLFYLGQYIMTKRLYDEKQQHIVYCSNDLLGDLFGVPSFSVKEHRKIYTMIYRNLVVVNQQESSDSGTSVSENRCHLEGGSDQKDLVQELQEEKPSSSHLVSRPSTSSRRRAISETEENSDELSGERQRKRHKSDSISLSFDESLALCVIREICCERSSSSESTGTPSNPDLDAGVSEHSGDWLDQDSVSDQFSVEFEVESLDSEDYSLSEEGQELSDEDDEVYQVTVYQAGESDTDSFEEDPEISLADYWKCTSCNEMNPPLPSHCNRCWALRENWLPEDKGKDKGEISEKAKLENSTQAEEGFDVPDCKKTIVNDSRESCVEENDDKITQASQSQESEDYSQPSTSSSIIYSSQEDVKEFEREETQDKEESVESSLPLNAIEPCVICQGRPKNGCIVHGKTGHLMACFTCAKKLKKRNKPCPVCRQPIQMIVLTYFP
# Chain of Mitogen-activated protein kinase 10 (P53779 whole entry): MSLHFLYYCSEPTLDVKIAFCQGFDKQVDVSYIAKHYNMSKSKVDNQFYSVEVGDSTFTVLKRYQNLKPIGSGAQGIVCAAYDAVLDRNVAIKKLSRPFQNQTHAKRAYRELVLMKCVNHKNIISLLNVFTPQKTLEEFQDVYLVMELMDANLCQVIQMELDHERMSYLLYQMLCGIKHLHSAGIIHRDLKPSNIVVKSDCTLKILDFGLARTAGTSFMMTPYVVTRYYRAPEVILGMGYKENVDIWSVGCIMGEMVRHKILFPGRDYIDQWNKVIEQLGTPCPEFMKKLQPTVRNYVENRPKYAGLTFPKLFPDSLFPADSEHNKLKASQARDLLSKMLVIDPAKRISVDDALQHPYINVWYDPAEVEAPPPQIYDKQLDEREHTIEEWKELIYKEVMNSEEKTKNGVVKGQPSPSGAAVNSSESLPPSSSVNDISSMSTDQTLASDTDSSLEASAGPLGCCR
# Chain of Cytochrome P450 2C9 (P11712 whole entry): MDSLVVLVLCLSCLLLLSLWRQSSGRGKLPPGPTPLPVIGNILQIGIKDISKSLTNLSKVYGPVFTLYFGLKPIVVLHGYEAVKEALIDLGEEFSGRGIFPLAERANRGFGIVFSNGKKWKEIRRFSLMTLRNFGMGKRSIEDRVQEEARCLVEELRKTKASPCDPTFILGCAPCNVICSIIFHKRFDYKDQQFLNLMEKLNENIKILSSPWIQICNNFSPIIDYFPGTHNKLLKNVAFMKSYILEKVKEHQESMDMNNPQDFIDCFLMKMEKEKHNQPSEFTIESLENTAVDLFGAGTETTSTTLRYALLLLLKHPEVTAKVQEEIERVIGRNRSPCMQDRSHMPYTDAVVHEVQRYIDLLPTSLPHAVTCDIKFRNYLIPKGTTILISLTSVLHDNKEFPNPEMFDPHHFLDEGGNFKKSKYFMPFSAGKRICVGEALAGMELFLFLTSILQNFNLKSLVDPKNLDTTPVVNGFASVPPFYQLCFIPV
smiles,measurement,setting,value
CCN(CC)CCCN(Cc1cc2cc3c(cc2nc1O)OCO3)C(S)=NCc1ccco1,AC50,[1],> 20 µM (inactive)
CCN1C(=O)C(=Cc2cc(C)n(C3CC3)c2C)C(=O)N(CC)C1=S,EC50,[2],44.4 µM (inactive)
same,EC50,[3],> 99 µM (inactive)
same,IC50,[4],> 50 µM (not active)
CC(C)N(C(=O)Nc1ccc2nccnc2c1)C(C)C,IC50,[4],> 50 µM (not active)
COc1ccccc1OCC(=O)Nc1cc(S(=O)(=O)N2CCCCC2)ccc1N1CCCCC1,EC50,[5],6.4 µM (not active)
O=c1c2ccccc2oc2cc(C#CC3(O)CCCCC3)ccc12,IC50,[6],> 9.49 µM (active)
Oc1[nH]c2ccccc2c1/C=N/c1nccs1,AC50,Cytochrome P450 2C9,25.1 µM (inconclusive)
same,IC50,[7],46.6 µM (not active)
N#Cc1ccc(-c2ccc([C@@H]3[C@@H]4CN(C(=O)Nc5ccc6c(c5)OCO6)C[C@H]3N4)cc2)cc1,AC50,[8],6.54 µM (active)
same,AC50,[9],3.41 µM (active)
COc1cccc(-c2ccc3c(c2)[C@@H]2[C@@H](CCN2C(=O)NC2CCCCC2)[C@@H](CO)N3C)c1,AC50,[9],2.88 µM (active)
same,AC50,[10],41.4 µM (active)
C[C@@H]1CCCCO[C@@H](CN(C)Cc2ccc(Cl)c(Cl)c2)[C@@H](C)CN([C@@H](C)CO)C(=O)c2cc(NS(=O)(=O)c3cccs3)ccc2O1,AC50,[8],1.54 µM (active)
C[n+]1c2n(c3ccccc31)N=C(c1ccccc1)CS2,EC50,H4,> 120 µM (not active)
same,EC50,[11],> 120 µM (not active)
same,EC50,[12],16 µM (active)
same,AC50,[13],1.14 µM (active)
same,IC50,[6],13.8 µM (inactive)
